Results reported in PMC12797238 (ACS Infectious Diseases, 2025).
Where “and” joins values, the source holds several entries; their conditions need not be identical. Equal values may be shown once.

Key:
Human BJ Fibroblast = test: Drug sensitivity assay, dose–response curves, human BJ fibroblasts; type: cell-based; conditions: mean, n ≥ 3
Text: (§1) Human fibroblasts, T. brucei, T. gambiense, P. falciparum, L. mexicana, and B. divergens were cultivated as described previously, and dose–response curves were obtained by their cultivation on 96 well plates in a 2-fold seriel dilution of the appropriate drug.

[1] = system: Trypanosoma brucei bloodstream forms; test: Drug sensitivity assay, dose–response curves, T. brucei; type: cell-based; conditions: for EC50: bloodstream forms, mean, n ≥ 3
Text: as §1

[2] = system: Trypanosoma gambiense bloodstream forms; test: Drug sensitivity assay, dose–response curves, T. gambiense; type: cell-based; conditions: for EC50: bloodstream forms, mean, n ≥ 3; for T. gambiense selectivity: relative to fibroblasts
Text: as §1

[3] = system: Leishmania mexicana axenic amastigotes; test: Drug sensitivity assay, dose–response curves, L. mexicana; type: cell-based; conditions: for EC50: axenic amastigotes, mean, n ≥ 3; for L. mexicana selectivity: relative to fibroblasts
Text: as §1

[4] = system: Toxoplasma gondii tachyzoites (RH strain), intracellular stages; test: T. gondii lytic cycle plaque assay in HFF monolayers; type: cell-based; conditions: for EC50: intracellular stages, plaque assay in HFFs, 7 days, n ≥ 3; for T. gondii selectivity: relative to fibroblasts
Experimental: T. gondii tachyzoites of the RH strain were routinely maintained through passages in a human foreskin fibroblasts (HFFs) monolayer (ATCC CRL-1634). HFFs and parasites were cultured in standard Dulbecco’s Modified Eagle Medium (DMEM), supplemented with 5% decomplemented fetal bovine serum (FBS), 2 mM L-glutamine, 100 U/mL penicillin, and 100 μg/mL streptomycin (Gibco) at 37 °C and with 5% CO2 in an incubator with a controlled atmosphere.
The lytic cycle of T. gondii tachyzoites was assessed by a plaque assay as described previously. Briefly, tachyzoites were allowed to invade monolayers of HFFs for 3 h before addition of the compounds or the DMSO vehicle and were subsequently cultivated for 7 days at 37 °C and 5% CO2. They were then fixed with 4% (w/v) paraformaldehyde (PFA, diluted in phosphate-buffered saline (PBS)) for 20 min and stained with a 0.1% crystal violet solution (V5265, Sigma-Aldrich), washed, and air-dried before imaging under an Olympus MVX10 microscope.
Figure S1. EC50 determination of selected compounds in Toxoplasma.
B) EC50 curves based on plaque
area measured from three independent plaque assays. Data are mean ± standard deviation. C)
vacuoles were counted for each con dition. Values represented are mean ± standard deviation of […]

[5] = system: Babesia divergens intracellular stages; test: Drug sensitivity assay, dose–response curves, B. divergens; type: cell-based; conditions: for EC50: intracellular stages, mean, n ≥ 3; for B. divergens selectivity: relative to fibroblasts
Text: as §1

[6] = system: Plasmodium falciparum intracellular stages; test: Drug sensitivity assay, dose–response curves, P. falciparum; type: cell-based; conditions: for EC50: intracellular stages, mean, n ≥ 3; for P. falciparum selectivity: relative to fibroblasts
Text: as §1

[7] = system: T. brucei 427 bloodstream form mitochondria; test: Mitochondrial membrane potential in T. brucei (TMRE, flow cytometry); type: cell-based, Trypanosoma brucei; conditions: 24 h at 3× EC50
Experimental: The mitochondrial membrane potential of T. brucei 427 bloodstream form was assessed using the fluorescent probe TMRE (Thermo Fisher Scientific) as described in ref . […] Untreated cells and cells preincubated with a 50 μM CCCP uncoupler for 30 min were used as negative and positive controls, respectively. Approximately 1 × 10^6 cells were incubated with 60 nM TMRE for 30 min, washed 1× with sterile PBS, and 5,000 events were measured on a Guava EasyCyte 8HT flow cytometer (Luminex) using a 488 nm excitation laser and a 583/26 nm detector. Median fluorescence was plotted against an untreated culture using Prism 8.0 (GraphPad Software), and statistical significance was determined using RM one-way ANOVA with Geisser–Greenhouse correction. The experiment was performed in three biologically independent replicates.

[8] = system: T. brucei 427 bloodstream forms, protein-bound iron; test: Iron distribution in T. brucei (55Fe, blue native electrophoresis, phosphor imaging); type: cell-based, Trypanosoma brucei; conditions: T. brucei preincubated with 55Fe; 8 h exposure; EC90 concentrations for 14 and 15
Experimental: The assay was performed as described in ref . T. brucei 427 bloodstream forms were grown in HMI-9 medium supplemented with 0.5 μM ^55Fe (29 600 MBq mg^–1) in the form of ferric citrate (1:20) and incubated for 24 h. […] Untreated cells were used as a control. After incubation, the cells were harvested by centrifugation and washed three times with NaCl–HEPES buffer (140 mM NaCl, 10 mM HEPES, pH 7.4). Cells were lysed by sonication in NaCl–HEPES buffer containing 1% digitonin and cOmplete EDTA-free protease inhibitor cocktail (Roche). Gels were vacuum-dried, autoradiographed for 5 days using a BAS-IP TR 2025 E tritium storage phosphor screen (GE Healthcare), and visualized with Typhoon FLA 7000 (GE Healthcare).

[9] = system: Toxoplasma tachyzoites mitochondrion; test: Toxoplasma mitochondrial membrane potential (MitoTracker, cytometry and microscopy); type: cell-based, Toxoplasma gondii; conditions: 24 h at 3× EC50; for T. gondii mitochondrial membrane potential, flow cytometric quantification of Mitotracker labeling: DFX at 60 nM; for Mitotracker staining of T. gondii, microscopic observation: FCCP as uncoupler control
Experimental: We used the MitoTracker Deep Red FM fluorescent probe (Invitrogen) to assess the mitochondrial membrane potential in Toxoplasma tachyzoites. […] After another 24 h of culture at 37 °C and 5% CO2, Mitotracker labeling was performed as described in the protocol provided by the manufacturer, with a 45 min incubation at 37 °C and 5% CO2 of the reconstituted dye diluted to 1/1000 in culture medium. Parasites were then fixed for 30 min in 4% (w/v) PFA (diluted in PBS), washed twice in PBS, scraped, syringed (with a 25 G needle), filtered on a 40 μm membrane, and resuspended in 1 mL of PBS. Parasites were then analyzed with an Aurora spectral cytometer (Cytek), using a 633 nm excitation laser and a 665 nm detector. 10,000 events were recorded. Mean fluorescence was plotted against vehicle-treated culture parasites using Prism 8.0 (GraphPad Software), and statistical significance was determined using one-way ANOVA with Tukey’s multiple-comparison test. The experiment was performed for three biologically independent replicates. For the membrane depolarization control, parasites were treated with 10 μM FCCP for 30 min prior to and during incubation with the Mitotracker dye.
Intracellular parasites and the host cell monolayer were then fixed 24 h later with 4% (w/v) PFA (diluted in PBS) for 20 min, and after fixation, cells were permeabilized with 0.3% (v/v) Triton X-100 (diluted in PBS) for 10 min. Costaining with the anti-F1β ATPase mitochondrial marker was performed as described below.

T. gondii mitochondrion = test: Toxoplasma immunofluorescence assay of organelle morphology; type: cell-based, Toxoplasma gondii; conditions: 24 h at 3× EC50; for morphology of the T. gondii mitochondrion: DFX at 60 nM
Experimental: For IFAs to assess organelle morphology, coverslips seeded with HFFs were infected with T. gondii tachyzoites, and 3 h later, compounds were added (at 3 times their respective EC50). Intracellular parasites and host cell monolayers were then fixed 24 h later with 4% (w/v) PFA (diluted in PBS) for 20 min. After fixation, cells were permeabilized with 0.3% (v/v) Triton X-100 (diluted in PBS) for 10 min. Coverslips were blocked with 2% (w/v) bovine serum albumin (BSA) for 1 h prior to immunolabeling with a primary antibody for 1 h. After 3 washes in PBS, a corresponding secondary antibody was incubated for 1 h. Coverslips were then incubated with 1 μg/mL of Hoechst stain for 5 min before 3 washes in PBS and, finally, mounted using Immu-Mount (Thermo Fisher) onto microscope slides. Primary antibodies used were prepared in 2% BSA (diluted in PBS) and used at the following concentrations: the apicoplast was stained using rabbit anti-PDH-E2 (1:500), the mitochondrion was stained using mouse anti-F1β ATPase (1:1000, gift of P. Bradley). Anti-mouse and anti-rabbit secondary antibodies were all from Thermo Fisher and were diluted at 1:4000. Image acquisition was performed with a Zeiss Axio Observer inverted microscope equipped with a Zeiss Axiocam 712 camera and 63×/1.4 or 100×/1.4 Oil Plan Achromat objectives. Images were processed with Zen Blue v3.6 software (Zeiss). Z-stack acquisitions were processed by a maximum-intensity orthogonal projection. Adjustments of brightness and contrast were applied uniformly, and paired images were acquired with the same exposure time. Quantifications of mitochondrial morphology were performed by microscopic observation of a series of at least 100 parasites, and data from three independent biological replicates was acquired and plotted using Prism 8.0 (GraphPad Software). Statistical significance was determined using one-way ANOVA with Tukey’s multiple-comparison test.

T. gondii tachyzoites = conditions: 24 h treatment at 3× EC50
Experimental: Parasites were allowed to invade an HFF monolayer on coverslips for 3 h before addition of the compounds (at 3 times their respective EC50) and left to grow for 24 h before being fixed and performing parasites immunodetection was by IFA with a mouse anti-SAG1 antibody, as described previously. The number of parasites per vacuole was counted and scored. Independent experiments were conducted 3 times, and 200 random vacuoles were counted for each condition.
Replication assay of T. gondii tachyzoites, which were allowed to invade HFF -coated coverslips,
then treated for 24 h with the compounds at 3 times the EC50 or DMSO vehicle, after which number
of parasites per vacuole was quantified for each condition and expressed as a percentage, 200
the compounds, using two -way ANOVA with Dunnett’s multiple comparison test.

| SMILES | EC50 (Human BJ Fibroblast) | EC50 [1] | EC50 [2] | T. gambiense selectivity [2] | EC50 [3] | L. mexicana selectivity [3] | EC50 [4] | T. gondii selectivity [4] | EC50 [5] | B. divergens selectivity [5] | EC50 [6] | P. falciparum selectivity [6] | mitochondrial membrane potential of T. brucei (relative to untreated) [7] | change in overall protein-bound iron distribution [8] | T. gondii mitochondrial membrane potential, flow cytometric quantification of Mitotracker labeling [9] | Mitotracker staining of T. gondii, microscopic observation [9] | morphology of the T. gondii mitochondrion (T. gondii mitochondrion) | other results |
| --- | --- | --- | --- | --- | --- | --- | --- | --- | --- | --- | --- | --- | --- | --- | --- | --- | --- | --- |
| O=C(NCCCCCCCCCC[P+](c1ccccc1)(c1ccccc1)c1ccccc1)c1ccc(-n2nc(-c3ccccc3O)nc2-c2ccccc2O)cc1.[Cl-] [compound 14, triphenylphosphine-C10-DFX] | 1.71 µM | 0.0042 µM | 0.0104 µM | 165 | 0.052 µM | 33 | 0.017 µM | 101 | 0.0412 µM | 42 | 0.0548 µM | 31 | less than 50% | neither mitoDFX nor the nonchelating compound 15 did cause any detectable change | most impactful | strong decrease in Mitotracker staining | altered the morphology of the organelle | EC50 ([1]; listed as mitoDFX): 0.004 µM; T. brucei selectivity ([1]; relative to human BJ fibroblast EC50, listed as mitoDFX): > 300; quantified mitochondrial morphology change (fragmented/collapsed) by IFA (T. gondii mitochondrion): caused the collapse of most T. gondii mitochondria; impact on T. gondii replication (parasites per vacuole) (T. gondii tachyzoites): particularly strong |
| CC(C)(C)OC(=O)NNc1ccc(C(=O)NCCCCCCCCCC[P+](c2ccccc2)(c2ccccc2)c2ccccc2)cc1.[Cl-] [compound 15, triphenylphosphine-C10-NHCOBocFenylhydrazine] | 7.4 µM | 0.037 µM and 0.0375 µM | 0.06 µM | 122 | 0.348 µM | 21 | 0.35 µM | 21 | 0.0762 µM | 96 | 0.311 µM | 23 | less than 50% | neither mitoDFX nor the nonchelating compound 15 did cause any detectable change | most impactful | strong decrease in Mitotracker staining | altered the morphology of the organelle |  |
